Patent US4465685A, “Antiinflammatory pyrazole thioureas” (Burroughs Wellcome Co., priority 1980, dated 1984)

Tests used:
lipoxygenase = assay: enzyme assay (Blackwell and Flower), inhibition of lipoxygenase; assay type: biochemical; details: read-out: ED50 Lipoxygenase
cyclo-oxygenase = assay: enzyme assay (Blackwell and Flower), inhibition of cyclo-oxygenase; assay type: biochemical; details: read-out: ED50 Cyclo-oxygenase

SMILES	IC50 (lipoxygenase)	IC50 (cyclo-oxygenase)
O=C(NC1=NN(c2cccc(C(F)(F)F)c2)CC1)Nc1ccccc1 [Example 1, 3-(N^2-phenylureido)-1-(3-trifluoromethylphenyl)-2-pyrazoline]	5 to 10 µM	3 µM
CNC(=O)NC1=NN(c2cccc(C(F)(F)F)c2)CC1 [Example 2, 3-(N^2-methylureido)-1-(3-trifluoromethylphenyl)-2-pyrazoline]	3 µM	3 µM
CNC(=S)NC1=NN(c2cccc(C(F)(F)F)c2)CC1 [Example 3, 3-(N^2-methylthioureido)-1-(3-trifluoromethylphenyl)-2-pyrazoline]	1 µM	1 µM
CN=C(NC1=NN(c2cccc(C(F)(F)F)c2)CC1)SC [Example 5, 3-(N^2,S-dimethylisothioureido)-1-(3-trifluoromethylphenyl)-2-pyrazoline hydriodide monohydrate]	1 µM	1 µM
CNC(=S)NC1=NN(c2ccc(Cl)cc2)CC1 [Example 6, 3-(3-methylthioureido)-1-(4-chlorophenyl)-2-pyrazoline]	3 µM	5 µM
CCCCNC(=S)NC1=NN(c2cccc(C(F)(F)F)c2)CC1 [Example 8, 3-(3-butylthioureido)-1-(3-trifluoromethylphenyl)-2-pyrazoline]	10 µM	10 µM
CN=C(NC1=NN(c2ccc(Cl)cc2)CC1)SC [Example 9, N,S-dimethyl-N^2 -/1-(4-chlorophenyl)-2-pyrazoline-3-yl/isothiourea hydriodide]	10 µM	10 µM
CNC(=S)NC1=NN(c2ccc3ccccc3c2)CC1 [Example 10, 3-(3-methylthioureido)-1-(2-naphthyl)-2-pyrazoline]	1 µM	0.25 µM
CNC(=S)NC1=NN(c2cnc3ccccc3c2)CC1 [Example 13, 3-(3-Methylthioureido)-1-(3-quinolyl)-2-pyrazoline]	10 µM	10 µM
CNC(=S)NC1=NN(c2ccccc2Cl)CC1 [Example 14, 1-(2-Chlorophenyl)-3-(3-methylthioureido)-2-pyrazoline]	10 µM	10 µM
CN=C(NC1=NN(c2ccc3ccccc3c2)CC1)SC [Example 17, N^1,S-Dimethyl-N^2 -/1-(2-naphthyl)-2-pyrazolin-3-yl/isothiourea hydriodide]	1 µM	1 µM
